# According to PubChem BioAssay AID1850 (Southern Research Specialized Biocontainment Screening …, 2009):
# Test system: Salmonella Typhi PhoP-promoter GFP reporter, fluorescence, 4 h
# Assay: PhoP regulon inhibitors, Salmonella typhi PhoP promoter GFP reporter, confirmatory (AID 1850)
row,SMILES,IC50 [µM]
1,Nc1nnc(-c2cccc(Cl)c2Cl)c(N)n1,65.3
2,CC[n+]1c(/C=C/N(C)c2ccccc2)n(-c2ccccc2)c2ccc(-c3nc4ccccc4s3)cc21,5.9
3,Cc1ccc2nc(NCc3ccccc3)[nH]c2c1,62.3
4,Cc1ccc(-c2cc(-c3ccc(C)cc3)[n+](-c3ccccc3)c(-c3ccc(C)cc3)c2)cc1,35
5,COc1ccc(/C=N/Nc2cc(C)nc3ccccc23)cc1,10.4
6,C#CCOCCOCCOCCNc1nc(N2CCN(C(=O)[C@H](Cc3ccc(O)cc3)n3cc([C@@H](N)CC(C)C)nn3)CC2)nc(N2CCN(C(=O)[C@H](Cc3cc4ccccc4[nH]3)n3cc([C@@H](N)CC(C)C)nn3)CC2)n1,105
7,CCC(C)(C)c1ccc(OCCCC[n+]2ccccc2)c(C(C)(C)CC)c1,19.2
8,Clc1ccc(OCCCN2CCCC2)cc1Cl,93.3
9,Cc1ccc2nc(N(CCCN(C)C)C(=O)c3sc4ccccc4c3Cl)sc2c1,35.5
10,Cc1ccc(OCC(=O)N/N=C/c2ccc([N+](=O)[O-])o2)cc1,21.9
11,O=C(CSc1ccccn1)N/N=C/c1cc([N+](=O)[O-])ccc1O,76.1
12,CCn1cc(C(=O)O)c(=O)c2cc(F)c(N3CCNCC3)cc21,0.27
13,COc1cc([N+](=O)[O-])cc(/C=N/NC(=O)c2cccnc2)c1O,82.4
14,C/C(=N\NC(=O)c1cccc(Br)c1)c1ccccn1,36.6
15,Cc1ccc(Nc2cc(C)nn2-c2nc(C)cc(=O)[nH]2)cc1,11.9
16,Cn1ncnc2c(=O)n(C)c(=O)nc1-2,1.29
17,Oc1cccc2ccc(Nc3ccccn3)nc12,9.36
18,[O-][n+]1c2c(c3c4non(O)c4ccc31)CCCC2,74.7
19,COc1c(N2CCNC(C)C2)c(F)cc2c(=O)c(C(=O)O)cn(C3CC3)c12 (centres undefined),0.29
20,COc1ccc(CCN2CCC(Nc3nc4ccccc4n3Cc3ccc(F)cc3)CC2)cc1,37.7

row,SMILES,IC50 [µM]
1,CCCCCCCCCCCCCCCC[n+]1ccc(C(N)=O)cc1,10.5
2,CNCCCCOc1ccc(C(C)(C)C)cc1Cl,77
3,C#CCOCCOCCOCCNc1nc(N2CCN(C(=O)CCCCCCCCCCNC(=O)[C@@H](CCSC)n3cc(CCO)nn3)CC2)nc(N2CCN(C(=O)CCCCCCCCCCNC(=O)[C@H]([C@@H](C)CC)n3cc(CCCCN=C(N)N)nn3)CC2)n1,82.7
4,CCCCCCCSc1cc(OC)c(CCNC)cc1OC,35.9
5,Clc1ccc(/C=C/c2ncc[nH]2)c(Cl)c1,38.1
6,O=C(Nc1csc(Cl)c1)c1ccccc1,25.1
7,OCCN1CCN(CCCN2c3ccccc3Sc3ccc(Cl)cc32)CC1,69.2
8,CN(C)CC/C=C1\c2ccccc2Sc2cc(F)c(Cl)cc21,26.5
9,O=C(NC1CCCC1)c1ccc(Br)s1,20.3
10,CNCC[C@H](Oc1cccc2ccccc12)c1cccs1,82
11,CCN(CC(=O)NC(C)(C)C)C(=O)COc1c(Cl)cc(Cl)c2ccc(C)nc12,41.4
12,N=c1n(CCN2CCCCC2)c2ccccc2n1CC(=O)c1ccc(Cl)c(Cl)c1,34.9
13,CCOC(=O)N1CCC(=NNc2ccnc3cc(Cl)ccc23)CC1,35.3
14,Nc1cc2c3c(cccc3c1)C(=O)N(CCN1CCCC1)C2=O,83.8
15,Clc1ccc(Nc2ccc(NCc3ccccc3)nn2)cc1,101
16,Cc1ccccc1S(=O)(=O)NNC(=O)C(=O)NNc1ccccn1,74.3
17,O=C(CCN1CCOCC1)N/N=C/c1cc(Br)cc(Br)c1O,31.1
18,CCCNC(=O)c1cn(CC)c2cc(N3CCN(C)CC3)c(F)cc2c1=O,13.4
19,CCCC(=O)NC(c1ccco1)c1cc([N+](=O)[O-])c2cccnc2c1O (centres undefined),38.9
20,Clc1cccc(/C=N\Nc2nccs2)c1,18.6

row,SMILES,IC50 [µM]
1,Clc1ccc(C[n+]2cc(-c3ccc(Cl)cc3)n3c2CCC3)cc1,52.4
2,CNCCCC1c2ccccc2C=Cc2ccccc21,136
3,O=C(O)c1cn(C2CC2)c2cc(N3CCN(S(=O)(=O)c4ccc5c(c4)OCCO5)CC3)c(F)cc2c1=O,7.56
4,O=C(/C=C/c1ccccc1)NC(=S)NNC(=O)c1cnccn1,29.7
5,CCCCCCCCCCCCCCCC[n+]1ccc(/C=N/O)cc1,26.2
6,CC[C@H]1OC(=O)[C@H](C)[C@@H](O[C@H]2C[C@@](C)(OC)[C@@H](O)[C@H](C)O2)[C@H](C)[C@@H](O[C@@H]2O[C@H](C)C[C@H](N(C)C)[C@H]2O)[C@](C)(O)C[C@@H](C)CN(C)[C@H](C)[C@@H](O)[C@]1(C)O,1.21
7,N#C/C(N=Nc1ccccc1O)=N\Nc1ccccc1O,36.1
8,CNCCC=C1c2ccccc2CCc2ccccc21,139
9,O=C(NC(=S)NNC(=O)c1cccs1)c1ccco1,39.1
10,O=C(N/N=C/c1ccc([N+](=O)[O-])s1)c1cccnc1,24
11,O=Nc1c(O)c2ccccc2c2ccccc12,19.7
12,Nc1c2ccccc2nc2ccccc12,36.8
13,Cc1ccc(NC(=O)CNCc2ccccc2)cc1Br,52.9
14,O=[N+]([O-])c1cccc(NNS(=O)(=O)c2ccccc2F)c1,6.05
15,O=C(C[n+]1cc(Br)cc2ccccc21)c1ccc(Cl)cc1,76.1
16,CN1CCN(C2Cc3ccc(Cl)cc3Sc3ccc(F)cc32)CC1 (centres undefined),37.8
17,CCOC(=O)N/N=C(/C)c1ccc([N+](=O)[O-])o1,53.7
18,O=C(Nc1cccc(Br)c1)c1cc2ccccc2o1,25.4
19,CC(=O)NNC(=S)NC(=O)c1ccccc1,20.5
